In the supplement of paper PMC11061612:

Assays:
Assay in all cases: combination Emax (second highest fraction inhibited in the dose matrix, 72 h); higher = more inhibition; extreme values may be limits of the assay
[1] = test system: NCI-H1703 (Squamous Cell Lung Carcinoma)
Procedure, shortened: (§1)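 After 24 hours at 37°C and 5% CO2 in 1536-well plates, cells in DMEM/F12 or RPMI plus 10% FBS received two-drug dose matrices for 72 hours. Viability came from CellTiter-Glo 2.0 luminescence and was scaled as inhibition, anchored at 0 by vehicle wells and at 1 by blank wells. Combination Emax is taken as the second-highest inhibition in the matrix, and Bliss excess as the observed combination effect less EA + EB − EA·EB, with EA and EB the single-agent effects.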

[2] = test system: JVM-2 (B-Cell Non-Hodgkin's Lymphoma)
Procedure, shortened: as §1

[3] = test system: HCC1395 (Breast Carcinoma)
Procedure, shortened: as §1

[4] = test system: KYSE-220 (Esophageal Squamous Cell Carcinoma)
Procedure, shortened: as §1

[5] = test system: 769-P (Kidney Carcinoma)
Procedure, shortened: as §1

[6] = test system: A101D (Melanoma)
Procedure, shortened: as §1

[7] = test system: AU565 (Breast Carcinoma)
Procedure, shortened: as §1

[8] = test system: SK-HEP-1 (Hepatocellular Carcinoma)
Procedure, shortened: as §1

[9] = test system: PEO1 (Ovarian Carcinoma)
Procedure, shortened: as §1

[10] = test system: KP-N-YN (Neuroblastoma)
Procedure, shortened: as §1

[11] = test system: LU-165 (Small Cell Lung Carcinoma)
Procedure, shortened: as §1

[12] = test system: WM1552C (Melanoma)
Procedure, shortened: as §1

[13] = test system: SW620 (Colorectal Carcinoma)
Procedure, shortened: as §1

[14] = test system: DMS-53 (Small Cell Lung Carcinoma)
Procedure, shortened: as §1

[15] = test system: EW-16 (Ewing's Sarcoma)
Procedure, shortened: as §1

[16] = test system: CA46 (Burkitt's Lymphoma)
Procedure, shortened: as §1

[17] = test system: NCI-H716 (Colorectal Carcinoma)
Procedure, shortened: as §1

[18] = test system: NCI-H2228 (Lung Adenocarcinoma)
Procedure, shortened: as §1

[19] = test system: CAL-27 (Oral Cavity Carcinoma)
Procedure, shortened: as §1

[20] = test system: KYSE-140 (Esophageal Squamous Cell Carcinoma)
Procedure, shortened: as §1

Row | SMILES | combination Emax [1] | combination Emax [2] | combination Emax [3] | combination Emax [4] | combination Emax [5] | combination Emax [6] | combination Emax [7] | combination Emax [8] | combination Emax [9] | combination Emax [10] | combination Emax [11] | combination Emax [12] | combination Emax [13] | combination Emax [14] | combination Emax [15] | combination Emax [16] | combination Emax [17] | combination Emax [18] | combination Emax [19] | combination Emax [20]
1 | CCc1c2c(nc3ccc(O)cc13)-c1cc3c(c(=O)n1C2)COC(=O)[C@]3(O)CC [SN-38] + O=C(c1cc(Cc2n[nH]c(=O)c3ccccc23)ccc1F)N1CCN(C(=O)C2CC2)CC1 [Olaparib] (first compound max 0.3 µM, 7x7, partner max 10 µM) | 0.882 | 0.934 | 0.518 | 0.99 | 0.734 | 0.757 | 0.891 | 0.665 | 0.725 | 0.491 | 0.478 | 0.609 | 0.822 | 0.735 | 0.981 |  |  |  |  | 
2 | CN(C)CCCOc1ccc(-c2ccc3ncc4c(c3c2)n(C2CCOCC2)c(=O)n4C)cn1 [AZD0156] + O=C(c1cc(Cc2n[nH]c(=O)c3ccccc23)ccc1F)N1CCN(C(=O)C2CC2)CC1 [Olaparib] (first compound max 3 µM, partner max 3 µM) | 0.582 | 0.533 | 0.315 | 0.54 | 0.16 | 0.411 | 0.631 | 0.332 | 0.122 |  | 0.21 | 0.324 | 0.337 | 0.255 | 0.412 | 0.567 | 0.225 | 0.439 | 0.299 | 0.113
3 | C=CCn1c(=O)c2cnc(Nc3ccc(N4CCN(C)CC4)cc3)nc2n1-c1cccc(C(C)(C)O)n1 [AZD1775] + C1CN(CCC1(C(=O)N[C@@H](CCO)C2=CC=C(C=C2)Cl)N)C3=NC=NC4=C3C=CN4 [Capivasertib] (first compound max 3 µM, partner max 3 µM) | 0.911 | 0.93 | 0.777 | 0.85 | 0.665 | 0.757 | 0.833 | 0.503 | 0.773 |  | 0.536 | 0.719 | 0.8 | 0.619 | 0.888 | 0.843 | 0.727 | 0.59 | 0.715 | 0.844
4 | C[C@@H](Oc1cc(-c2cnn(C3CCNCC3)c2)cnc1N)c1c(Cl)ccc(F)c1Cl [Crizotinib] + Cn1cnc2c(F)c(Nc3ccc(Br)cc3Cl)c(C(=O)NOCCO)cc21 [Selumetinib] (first compound max 10 µM, 7x7, partner max 10 µM) | 0.535 |  | 0.491 | 0.973 | 0.875 |  |  | 0.387 | 0.297 | 0.607 | 0.279 | 0.864 | 0.861 |  |  |  |  |  |  | 
5 | CS(=O)(=O)CCNCc1ccc(-c2ccc3ncnc(Nc4ccc(OCc5cccc(F)c5)c(Cl)c4)c3c2)o1 [Lapatinib] + Cn1cnc2c(F)c(Nc3ccc(Br)cc3Cl)c(C(=O)NOCCO)cc21 [Selumetinib] (first compound max 10 µM, 7x7, partner max 10 µM) | 0.482 |  | 0.846 | 0.954 | 0.945 |  |  | 0.133 | 0.52 | 0.409 | 0.24 | 0.444 | 0.656 |  |  |  |  |  |  | 
6 | C[C@@H](Nc1cc(F)cc(F)c1)c1cc(C(=O)N(C)C)cc2c(=O)cc(N3CCOCC3)oc12 [AZD8186] + C1CN(CCC1(C(=O)N[C@@H](CCO)C2=CC=C(C=C2)Cl)N)C3=NC=NC4=C3C=CN4 [AZD5363] (first compound max 10 µM, 7x7, partner max 10 µM) | 0.635 |  | 0.414 | 0.445 | 0.338 |  |  | 0.159 | 0.351 | 0.257 | 0.375 | 0.339 | 0.24 |  |  |  |  |  |  | 
7 | CN(CCO)CC[C@H](CSc1ccccc1)Nc1ccc(S(=O)(=O)NC(=O)c2ccc(N3CCC([C@@H](O)c4ccccc4-c4ccc(Cl)cc4)CC3)cc2)cc1S(=O)(=O)C(F)(F)F [AZD4320] + CN(C)CCCOc1ccc(-c2ccc3ncc4c(c3c2)n(C2CCOCC2)c(=O)n4C)cn1 [AZD0156] (first compound max 1 µM, 7x7, partner max 1 µM) | 0.367 | 0.487 | 0.202 | 0.14 | 0.719 | 0.413 | 0.253 | 0.325 | 0.45 |  | 0.526 | 0.163 | 0.366 | 0.965 | 0.406 | 0.349 | 0.195 | 0.278 | 0.158 | 0.157
8 | O=C(c1cc(Cc2n[nH]c(=O)c3ccccc23)ccc1F)N1CCN(C(=O)C2CC2)CC1 [Olaparib] + CN(CC[C@H](CSC1=CC=CC=C1)NC2=C(C=C(C=C2)S(=O)(=O)NC(=O)C3=CC=C(C=C3)N4CCC(CC4)[C@H](C5=CC=CC=C5C6=CC=C(C=C6)Cl)O)S(=O)(=O)C(F)(F)F)CCO [AZD4320] (first compound max 10 µM, 7x7, partner max 1 µM) | 0.19 |  | 0.407 | 0.267 | 0.678 |  |  | 0.911 | 0.242 | 0.968 | 0.473 | 0.484 | 0.329 |  |  |  |  |  |  | 
9 | O=C(c1cc(Cc2n[nH]c(=O)c3ccccc23)ccc1F)N1CCN(C(=O)C2CC2)CC1 [Olaparib] + COc1nnc2ccc(N3CCC(c4ccc(OCCN5CCN(C)C(=O)[C@H]5C)cc4)CC3)nn12 [AZD5153] (first compound max 10 µM, 7x7, partner max 1 µM) | 0.571 |  | 0.426 | 0.558 | 0.709 |  |  | 0.752 | 0.361 | 0.521 | 0.373 | 0.376 | 0.447 |  |  |  |  |  |  | 
10 | Cc1nc(-c2cn3c(n2)-c2ccc(-c4cnn(C(C)(C)C(N)=O)c4)cc2OCC3)n(C(C)C)n1 [Taselisib] + O=C(Nc1ccc2[nH]nc(-c3ccncc3)c2c1)[C@@H]1CCN(CC(=O)N2CCN(c3ccc(-c4ncccn4)cc3)CC2)C1 [SCH772984] (first compound max 10 µM, 7x7, partner max 5 µM) | 0.722 |  | 0.606 | 0.905 | 0.809 |  |  | 0.389 | 0.818 | 0.553 | 0.475 | 0.813 | 0.764 |  |  |  |  |  |  | 
11 | Cc1c2c(nn1C)CSCc1cc(n(C)n1)CSc1cc(c3ccccc3c1)OCCCc1c(C(=O)O)n(C)c3c-2c(Cl)ccc13 [AZD5991] + CS(=O)(=O)CCNCc1ccc(-c2ccc3ncnc(Nc4ccc(OCc5cccc(F)c5)c(Cl)c4)c3c2)o1 [Lapatinib] (first compound max 1 µM, 7x7, partner max 10 µM) | 0.935 |  | 0.94 | 0.933 | 0.917 |  |  | 0.632 | 0.442 | 0.374 | 0.225 | 0.693 | 0.207 |  |  |  |  |  |  | 
12 | CS(=O)(=O)CCNCc1ccc(-c2ccc3ncnc(Nc4ccc(OCc5cccc(F)c5)c(Cl)c4)c3c2)o1 [Lapatinib] + NC1(c2ccc(-c3nc4ccn5c(=O)[nH]nc5c4cc3-c3ccccc3)cc2)CCC1 [MK-2206] (first compound max 10 µM, 7x7, partner max 10 µM) | 0.756 |  | 0.969 | 0.981 | 0.978 | 0.967 |  | 0.87 | 0.348 | 0.922 | 0.453 | 0.767 | 0.889 | 0.544 |  |  |  |  |  | 
13 | Cc1c2c(nn1C)CSCc1cc(n(C)n1)CSc1cc(c3ccccc3c1)OCCCc1c(C(=O)O)n(C)c3c-2c(Cl)ccc13 [AZD5991] + CC(=O)O[C@H]1C(=O)[C@@]2(C)[C@H]([C@H](OC(=O)c3ccccc3)[C@]3(O)C[C@H](OC(=O)[C@H](O)[C@@H](NC(=O)c4ccccc4)c4ccccc4)C(C)=C1C3(C)C)[C@]1(OC(C)=O)CO[C@@H]1C[C@@H]2O [Paclitaxel] (first compound max 1 µM, 7x7, partner max 3 µM) | 0.993 |  | 0.933 | 0.745 | 0.789 |  |  | 0.857 | 0.762 | 0.608 | 0.36 | 0.989 | 0.788 |  |  |  |  |  |  | 
14 | O=C(c1cc(Cc2n[nH]c(=O)c3ccccc23)ccc1F)N1CCN(C(=O)C2CC2)CC1 [Olaparib] + CC1(C)CCC(CN2CCN(c3ccc(C(=O)NS(=O)(=O)c4ccc(NCC5CCOCC5)c([N+](=O)[O-])c4)c(Oc4cnc5[nH]ccc5c4)c3)CC2)=C(c2ccc(Cl)cc2)C1 [Venetoclax] (first compound max 10 µM, 7x7, partner max 1 µM) | 0.18 |  | 0.242 | 0.155 | 0.284 |  |  | 0.73 | 0.146 | 0.728 | 0.207 | 0.319 | 0.182 |  |  |  |  |  |  | 
15 | O=C(c1cc(Cc2n[nH]c(=O)c3ccccc23)ccc1F)N1CCN(C(=O)C2CC2)CC1 [Olaparib] + Cc1c2c(nn1C)CSCc1cc(n(C)n1)CSc1cc(c3ccccc3c1)OCCCc1c(C(=O)O)n(C)c3c-2c(Cl)ccc13 [AZD5991] (first compound max 10 µM, 7x7, partner max 1 µM) | 0.859 |  | 0.616 | 0.166 | 0.261 |  |  | 0.478 | 0.112 | 0.335 | 0.141 | 0.856 | 0.173 |  |  |  |  |  |  | 
